Measurements from ChEMBL document CHEMBL1201862, “PubChem BioAssay data set” (2004).
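Exposure lasted 48 hours, with cells grown in 96-well plates and compounds tested at five concentrations. The concentration for 50% growth inhibition is given as GI50.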 Activity calls are given as the source filed them. No stated cut-off is given here; in the data, active = GI50 up to about 1.1 µM and inactive = higher.

Assays:
Assay in all cases: growth of human tumour cells (NCI), 48 h
DLD-1 = system: DLD-1
DMS-273 = system: DMS-273
KM-20L2 = system: KM-20L2
LXFL 529 = system: LXFL 529
M19-MEL = system: M19-MEL
SNB-78 = system: SNB-78
DMS-114 = system: DMS-114
XF498 = system: XF498
RXF 631 = system: RXF 631

Compound | GI50 (DLD-1) | GI50 (DMS-273) | GI50 (KM-20L2) | GI50 (LXFL 529) | GI50 (M19-MEL) | GI50 (SNB-78) | GI50 (DMS-114) | GI50 (XF498) | GI50 (RXF 631)
CCOc1ccc(/N=N/c2ccc3oc(=O)c(C(=O)Nc4ccc(OC)cc4)cc3c2)cc1 | 8.32 µM (inactive) | 25.8 µM (inactive) | 32.2 µM (inactive) | 6.82 µM (inactive) | 26.4 µM (inactive) | 21.3 µM (inactive) | – | – | –
CN(C(=O)C1CC1)C1C2CN3CCC(O2)C13 (configuration not stated) | > 100 µM (inactive) | > 100 µM (inactive) | > 100 µM (inactive) | > 100 µM (inactive) | > 100 µM (inactive) | 94.4 µM (inactive) | > 100 µM (inactive) | – | –
COc1nc(NC2OCC(OC(C)=O)C(OC(C)=O)C2OC(C)=O)c(/N=C\C=N\c2c(NC3OCC(OC(C)=O)C(OC(C)=O)C3OC(C)=O)nc(OC)n(C)c2=O)c(=O)n1C (configuration not stated) | > 100 µM (inactive) | > 100 µM (inactive) | > 100 µM (inactive) | > 100 µM (inactive) | > 100 µM (inactive) | > 100 µM (inactive) | – | 17.9 µM (inactive) | –
O=C(O)CSc1nnc(-c2ccccc2)[nH]1 | > 100 µM (inactive) | > 100 µM (inactive) | > 100 µM (inactive) | > 100 µM (inactive) | > 100 µM (inactive) | – | – | > 100 µM (inactive) | –
O=C(/C=C/c1ccccc1O)c1cccnc1 | > 100 µM (inactive) | > 100 µM (inactive) | > 100 µM (inactive) | > 100 µM (inactive) | > 100 µM (inactive) | > 100 µM (inactive) | – | > 100 µM (inactive) | > 100 µM (inactive)
COC(=O)c1ccc2c(c1)C(NC(C)=O)CCc1cc(OC)c(OC)c(OC)c1-2 (configuration not stated) | 0.0173 µM (active) | < 0.01 µM (active) | 0.0118 µM (active) | < 0.0154 µM (active) | 0.0235 µM (active) | < 0.0152 µM (active) | < 0.0126 µM (active) | 0.06 µM (active) | 0.014 µM (active)
C1CC2=C(C1)C1=S(S2)SC2=C1CCC2 | > 100 µM (inactive) | > 100 µM (inactive) | > 100 µM (inactive) | > 100 µM (inactive) | > 100 µM (inactive) | > 100 µM (inactive) | > 100 µM (inactive) | – | > 100 µM (inactive)
O=C(O)CCC1CCc2cccc(OCC(=O)O)c2C1=O (configuration not stated) | > 100 µM (inactive) | > 100 µM (inactive) | > 100 µM (inactive) | > 100 µM (inactive) | > 100 µM (inactive) | > 100 µM (inactive) | > 100 µM (inactive) | > 100 µM (inactive) | –
COc1ccc(C(C)c2cc3c(cc2OC)OCO3)cc1 (configuration not stated) | 0.225 µM (active) | 0.106 µM (active) | 0.225 µM (active) | 0.125 µM (active) | 0.395 µM (active) | 0.612 µM (active) | 0.339 µM (active) | – | –
O=S(=O)(O)c1ccc(-c2c3nc(c(-c4ccc(S(=O)(=O)O)cc4)c4ccc([nH]4)c(-c4ccc(S(=O)(=O)O)cc4)c4nc(c(-c5ccc(S(=O)(=O)O)cc5)c5ccc2[nH]5)C=C4)C=C3)cc1 | > 100 µM (inactive) | 95.5 µM (inactive) | > 100 µM (inactive) | > 100 µM (inactive) | > 100 µM (inactive) | 44.6 µM (inactive) | 40.2 µM (inactive) | > 100 µM (inactive) | 80.9 µM (inactive)
CC(C)N(C(=O)C12C3C4C1C1C2C3C41C#N)C(C)C (configuration not stated) | > 72.8 µM (inactive) | > 71.8 µM (inactive) | > 100 µM (inactive) | > 100 µM (inactive) | > 100 µM (inactive) | > 100 µM (inactive) | > 100 µM (inactive) | > 100 µM (inactive) | > 100 µM (inactive)
C/C=C/C=N/N(c1nnc(-c2ccccc2)c(-c2ccccc2)n1)S(=O)(=O)c1ccc(C)cc1 | 5.05 µM (inactive) | 11.1 µM (inactive) | 13.2 µM (inactive) | 7.21 µM (inactive) | 13.2 µM (inactive) | 15.3 µM (inactive) | 13 µM (inactive) | – | 17.5 µM (inactive)
C1OCC2S[C@@H]3COCO[C@@H]3C2O1 (some centres not stated) | > 100 µM (inactive) | > 100 µM (inactive) | > 100 µM (inactive) | > 100 µM (inactive) | > 100 µM (inactive) | > 100 µM (inactive) | > 100 µM (inactive) | > 100 µM (inactive) | –
CC(=O)Nc1ccc(C(=O)NN2C(=O)C(Cl)C2c2ccc(Cl)cc2)cc1 (configuration not stated) | > 100 µM (inactive) | – | – | 50.6 µM (inactive) | > 100 µM (inactive) | – | – | – | –
C=C(C)C1CC[C@]2(C(=O)O)CCC3(C)[C@H](CCC4[C@@]5(C)CC[C@H](OC6OC(CO)C(O)C6OC6OC(C)C(O)C(O)C6O)[C@@](C)(CO)C5CC[C@]43C)C12 (some centres not stated) | 33.9 µM (inactive) | > 100 µM (inactive) | > 100 µM (inactive) | > 100 µM (inactive) | > 100 µM (inactive) | > 100 µM (inactive) | > 100 µM (inactive) | > 100 µM (inactive) | > 100 µM (inactive)
CCCCC1CC(c2cccc([N+](=O)[O-])c2)=NO1 (configuration not stated) | > 100 µM (inactive) | > 100 µM (inactive) | > 100 µM (inactive) | 56.5 µM (inactive) | 74.6 µM (inactive) | > 100 µM (inactive) | 40.6 µM (inactive) | – | 80.7 µM (inactive)
CC(=O)OC1CC(n2cc(F)c(=O)[nH]c2=O)OC1CO (configuration not stated) | 28.8 µM (inactive) | 0.331 µM (active) | 0.962 µM (active) | 0.575 µM (active) | > 100 µM (inactive) | > 100 µM (inactive) | 1.36 µM (inactive) | 13.7 µM (inactive) | –
CCc1cccc(C)c1NC(=O)CC1Sc2ccccc2NC1=O (configuration not stated) | 28.4 µM (inactive) | 48.9 µM (inactive) | 46.5 µM (inactive) | 56.8 µM (inactive) | 45.4 µM (inactive) | 34.4 µM (inactive) | 57.3 µM (inactive) | 72.9 µM (inactive) | 35.8 µM (inactive)
C/C(=N/O)c1sc(-c2nc(C)c(/C(C)=N\O)s2)nc1C | > 100 µM (inactive) | > 100 µM (inactive) | > 100 µM (inactive) | > 100 µM (inactive) | > 100 µM (inactive) | > 100 µM (inactive) | > 100 µM (inactive) | > 100 µM (inactive) | > 100 µM (inactive)
O=C1O[C@H](C(Cl)(Cl)Cl)N2CCCC12 (some centres not stated) | – | > 100 µM (inactive) | > 100 µM (inactive) | > 100 µM (inactive) | > 100 µM (inactive) | – | > 100 µM (inactive) | > 100 µM (inactive) | –
CC(=O)/C=C/c1ccc(C)cc1 | > 100 µM (inactive) | > 100 µM (inactive) | > 100 µM (inactive) | > 100 µM (inactive) | > 100 µM (inactive) | > 100 µM (inactive) | > 100 µM (inactive) | – | –
COC(=O)/C(C#N)=C1\NN=NN1CCCN1CCOCC1 | > 100 µM (inactive) | > 100 µM (inactive) | – | > 100 µM (inactive) | > 100 µM (inactive) | > 100 µM (inactive) | > 100 µM (inactive) | – | –
COC(=O)NC1C(C)OC(OC2C/C=C(/C)C3C=CC4C(OC5CC(OC6CCC(OC7CC(O)C(OC8CCC(O)C(C)O8)C(C)O7)C(C)O6)C(OC(C)=O)C(C)O5)C(C)CC(C)C4C3(C)/C(O)=C3/C(=O)OC4(CC(C=O)=CC(O)C4/C=C\2C)C3=O)CC1(C)[N+](=O)[O-] (configuration not stated) | 2.45 µM (inactive) | 1.27 µM (inactive) | 1.29 µM (inactive) | 0.352 µM (active) | 0.367 µM (active) | 1.82 µM (inactive) | 0.385 µM (active) | 0.261 µM (active) | 0.603 µM (active)
CCOC(=O)c1c(C(F)(F)F)oc2c1ccc1nc3nonc3nc12 | 14.3 µM (inactive) | 19.1 µM (inactive) | 18.2 µM (inactive) | 14 µM (inactive) | 18.6 µM (inactive) | 14.7 µM (inactive) | 23.7 µM (inactive) | 17 µM (inactive) | 19 µM (inactive)
CC(C)(C)OC(=O)Cc1ccc2c(ccn2Cc2ccccc2)c1 | 57.3 µM (inactive) | 48 µM (inactive) | 26.3 µM (inactive) | 46.7 µM (inactive) | 62.4 µM (inactive) | > 100 µM (inactive) | 18.7 µM (inactive) | – | 25.9 µM (inactive)
Oc1nc(S)nc2c1CCCN2 | > 100 µM (inactive) | – | – | > 100 µM (inactive) | > 100 µM (inactive) | > 100 µM (inactive) | > 100 µM (inactive) | – | > 100 µM (inactive)
